The values that follow are results of earlier work, collected in patent US6306425A, “Injectable naltrexone microsphere compositions and their use in reducing consumption of heroin and alcohol” (Southern Research Institute, priority 2000, dated 2001).

The test system of series [1] is alcoholics.

In the case of `O=C1CC[C@@]2(O)[C@H]3Cc4ccc(O)c5c4[C@@]2(CCN3CC2CC2)[C@H]1O5` [naltrexone], the “Control of amount of alcohol consumed and number of binges” value in series [1] was “serves to enhance the control of the alcoholic in the amount of alcohol consumed and the number of binges”. For the same molecule, the Safety entry (administered levels in excess of those of the subject compositions) was “found to be safe”. Also, the Hepatotoxicity result (high dosages) is given as “some reports of hepatotoxicity”. In addition, the “Population with adverse reactions” value (oral naltrexone) is reported as “about 10%”.
